Laboratory results: patent US7381750B2, “Amino-phenoxymethyl-benzamide opioid receptor antagonists” (Eli Lilly and Company, priority 2004, dated 2008)

Columns and labels:
[1] = target: T1, cloned human mu opioid receptor (Homo sapiens, UniProt P35372); assay: GTP-γ-S binding assay, antagonist mode (mu); type: biochemical; settings: functional antagonist potency vs DAMGO 1 micromolar; membranes, [35S]GTP-γ-S SPA; Cheng-Prusoff
T1 construct: expressed in transfected cells
Protocol: (§1) The functional antagonist potency (Kb) of the sample compounds was determined using the GTPγS binding assay. GTPgS-based functional assays provide an in vitro measure of the activity of opioid agonists and antagonists. Opioid reference compounds or test compound are incubated with membrane homogenate from cells expressing the cloned human mu, kappa or delta opioid receptor and radiolabeled [35S]GTPgS. If the compound activates the opioid receptor, an increase in the binding of radiolabeled GTPgS is observed. […] These tests provide an in vitro measurement of the activity of the compound at human opioid receptors.
(§2) An SPA-based GTP-γ-S assay format was developed based on previous opioid (Emmerson et al., J. Pharm Exp Ther 278, 1121, 1996; Horng et al., Society for Neuroscience Abstracts, 434.6, 2000) and muscarinic (DeLapp et al., JPET 289, 946, 1999) assay formats. Membranes were resuspended in 20 mM HEPES, 100 mM NaCl, 5 mM MgCl2, 1 mM DTT, and 1 mM EDTA. Fifty (50) […] of GTP-γ-[35S], compound, membrane suspension (20 microgram/well), and wheat germ agglutinin coated SPA beads (1 mg/well) were added to clear bottom 96 well assay plates. GDP ([…]) was added to the membrane solution prior to addition to the assay plates. Plates were sealed and incubated for four hours at room temperature then placed in a refrigerator overnight to allow the beads to settle. Signal stability at 4° C. was determined to be >60 hours. Plates were warmed to room temperature and counted in a Wallac Microbeta scintillation counter. For antagonist assays, specific agonists were added at the following concentrations: (MOR) DAMGO 1 micromolar, (DOR) DPDPE 30 nM, (KOR) U69593 300 nM. Kb's were determined by Cheng-Prusoff equation (see Cheng and Prusoff, Biochem. Pharmacol. 22, 3099, 1973).

[2] = target: T2, cloned human delta opioid receptor (Homo sapiens, UniProt P41143); assay: GTP-γ-S binding assay, antagonist mode (delta); type: biochemical; settings: functional antagonist potency vs DPDPE 30 nM; membranes, [35S]GTP-γ-S SPA; Cheng-Prusoff
T2 construct: expressed in transfected cells
Protocol: as §1, §2

T2 sequence (P41143 whole entry): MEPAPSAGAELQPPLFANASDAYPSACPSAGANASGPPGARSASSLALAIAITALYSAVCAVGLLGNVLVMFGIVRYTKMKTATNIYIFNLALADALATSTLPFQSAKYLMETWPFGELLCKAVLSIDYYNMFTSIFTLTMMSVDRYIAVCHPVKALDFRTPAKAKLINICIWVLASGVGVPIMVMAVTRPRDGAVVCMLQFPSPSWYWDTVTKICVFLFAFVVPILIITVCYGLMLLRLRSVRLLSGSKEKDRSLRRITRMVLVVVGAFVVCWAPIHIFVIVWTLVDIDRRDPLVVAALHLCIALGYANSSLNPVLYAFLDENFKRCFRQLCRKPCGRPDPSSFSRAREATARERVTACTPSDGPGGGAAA
T1 sequence (P35372 whole entry): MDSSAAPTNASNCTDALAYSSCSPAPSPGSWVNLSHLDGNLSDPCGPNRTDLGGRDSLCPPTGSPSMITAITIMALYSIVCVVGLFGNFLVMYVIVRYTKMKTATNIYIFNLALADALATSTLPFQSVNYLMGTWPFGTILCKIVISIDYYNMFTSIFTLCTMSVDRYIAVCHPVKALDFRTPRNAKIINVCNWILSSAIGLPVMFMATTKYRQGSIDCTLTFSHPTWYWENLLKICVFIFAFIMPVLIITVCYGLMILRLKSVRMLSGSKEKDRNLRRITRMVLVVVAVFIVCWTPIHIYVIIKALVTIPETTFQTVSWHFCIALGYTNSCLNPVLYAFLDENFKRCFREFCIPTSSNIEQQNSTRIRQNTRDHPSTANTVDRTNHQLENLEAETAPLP

Structure (SMILES) | Kb [1] [nM] | Kb [2] [nM]
CC(C)CCNCc1ccc(OCc2cccc(C(N)=O)c2)cc1 [Example 1, 3-{4-[(3-Methyl-butylamino)-methyl]-phenoxymethyl}-benzamide] | > 21 | > 41
CC(C)CCNCc1ccc(OCc2ccc(C(N)=O)cc2)cc1 [Example 2, 4-{4-[(3-Methyl-butylamino)-methyl]-phenoxymethyl}-benzamide] | 62.9 | 337
CC(C)CCNCc1ccc(COc2ccc(C(N)=O)cc2)cc1 [Example 4, 4-{4-[(3-Methyl-butylamino)-methyl]-benzyloxy}-benzamide] | > 23 | > 67
CC(C)CCNCc1ccc(OCCc2ccc(C(N)=O)cc2)cc1 [Example 5, 4-(2-{4-[(3-Methyl-butylamino)-methyl]-phenoxy}-ethyl)-benzamide] | > 23 | > 67
